According to patent US20260144882A1, “ANTI-NECTIN-4 ANTIBODY DRUG CONJUGATE AND USE THEREOF” (Bio-Thera Solutions, Ltd., priority 2022, published 2026):
Several values for one entry are separate records, joined by “and”; a condition that tells them apart may be missing. Equal entries are not always repeated.

Experiments:
[1] = system: T-47D cells; experiment: Endocytosis efficiency assay by FACS; type: cell-based, human
Procedure: In this assay, the relative amount of antibodies remaining on the cell surface after co-incubation at 37° C. for a certain period of time was detected by FACS to reflect the endocytosis efficiency. The procedures are briefly described as follows: T-47D cells (human ductal breast cancer cells, derived from the Cell Bank of Chinese Academy of Sciences, Cat.No. TCHu 87); the antibodies of interest were adjusted to 10 µg/mL and co-incubated with the cells on ice for 1 h; the cells were washed 3 times with pre-cooled PBS, and then placed at 37° C. and incubated for 0 h, 2 h and 4 h; 0.2% N3Na was added to stop the endocytosis reaction; the cells were washed with PBS thrice, followed by the addition of the PE-labeled anti-human Fc secondary antibody (Invitrogen 12-4998-82); the cells were incubated at 4° C. for 30 min; the red fluorescence signal was detected on a flow cytometer.

[2] = biological target: T1, mouse mNectin-4 protein (Mus musculus, UniProt Q8R007); experiment: Species specificity ELISA, mouse Nectin-4; type: binding; conditions: in words
T1 construct: purchased ACRO NE4-M52H3
T1 sequence (Q8R007 31-508): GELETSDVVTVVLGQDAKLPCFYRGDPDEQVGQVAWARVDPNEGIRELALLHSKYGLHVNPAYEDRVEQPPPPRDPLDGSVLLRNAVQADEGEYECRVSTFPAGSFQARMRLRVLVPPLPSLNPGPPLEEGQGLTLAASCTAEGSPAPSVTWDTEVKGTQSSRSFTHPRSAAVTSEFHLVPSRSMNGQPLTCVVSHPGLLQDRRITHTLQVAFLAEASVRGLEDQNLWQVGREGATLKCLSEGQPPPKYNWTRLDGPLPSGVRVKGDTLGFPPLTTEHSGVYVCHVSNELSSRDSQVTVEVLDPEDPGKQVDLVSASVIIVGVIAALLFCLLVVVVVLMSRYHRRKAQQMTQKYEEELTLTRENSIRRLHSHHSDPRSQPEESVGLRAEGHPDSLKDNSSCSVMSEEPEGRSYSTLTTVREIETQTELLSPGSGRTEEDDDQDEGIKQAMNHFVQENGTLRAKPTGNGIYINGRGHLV
Procedure: The binding of different antibodies to different species of Nectin-4 proteins was detected by ELISA. hNectin-4-His, monkey cNectin-4 protein (ACRO, NE4-C52H4) and mouse mNectin-4 protein (ACRO, NE4-M52H3) were immobilized; antibodies ASG-22, 1F3, 1G8, 3A10, and 10F4 were serially diluted, and HRP-labeled anti-human-Kappa secondary antibody was added for chromogenic reaction.

[3] = biological target: T2, hNectin-4-His (human Nectin-4 extracellular antigen) (Homo sapiens, UniProt Q96NY8); experiment: SPR (BIAcore) affinity assay; type: binding
T2 construct: made in house
T2 sequence (Q96NY8 with tags, fused parts or gaps): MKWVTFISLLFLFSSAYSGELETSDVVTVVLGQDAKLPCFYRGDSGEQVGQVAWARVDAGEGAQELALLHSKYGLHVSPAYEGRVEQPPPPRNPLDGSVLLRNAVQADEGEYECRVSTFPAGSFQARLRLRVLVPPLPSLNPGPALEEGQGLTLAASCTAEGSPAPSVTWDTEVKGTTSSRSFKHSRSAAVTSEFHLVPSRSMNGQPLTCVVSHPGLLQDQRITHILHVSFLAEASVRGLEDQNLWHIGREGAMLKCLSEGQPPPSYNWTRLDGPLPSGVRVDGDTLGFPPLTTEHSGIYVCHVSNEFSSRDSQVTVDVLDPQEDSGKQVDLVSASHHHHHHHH
Procedure: In this study, the affinity of the antibodies for the human Nectin-4 extracellular antigen was detected by surface plasmon resonance (SPR) technique (BIAcore: GE Healthcare, T200).
Capture was performed using a Protein A chip (Cat #29127556, GE Healthcare), and 5 µg/mL antibody dilutions (in HBS-EP+(10×): GE Healthcare, Cat #BR-1006-69, with a working concentration of 1×) were directed through the experimental flow channels (Fc2 and Fc4) at a flow rate of 10 μL/min for 10 s; then, the flow rate was adjusted to 30 μL/min, the hNectin-4-His dilutions at different concentrations (0 nM, 1.23 nM, 3.7 nM, 11.1 nM, 33.3 nM, and 100 nM) were sequentially added, and simultaneously directed through the surfaces of the experimental flow channels (Fc2 and Fc4) and reference flow channels (Fc1 and Fc3) with an association time of 120 s and a dissociation time of 180 s, and finally, the chip was regenerated in Glycine 1.5.

Substance: ASG-22: reference antibody; heavy chain SEQ ID NO: 5, light chain SEQ ID NO: 6 [reference compound]
- Endocytosis rate at 2 h ([1]; Table 14): 49.8%
- Endocytosis rate at 4 h ([1]; Table 14): 74.1%
- MFI (mean fluorescence intensity) 2 h ([1]; Table 14, 37° C.): 53739.06
- MFI (mean fluorescence intensity) 4 h ([1]; Table 14, 37° C.): 27694.23
- Endocytosis rate at 2 h ([1]; Table 15): 35.2%
- Endocytosis rate at 4 h ([1]; Table 15): 35.4%
- MFI (mean fluorescence intensity) 0 h ([1]; Table 15, 37° C., 0 h): 58,591.2
- MFI (mean fluorescence intensity) 2 h ([1]; Table 15, 37° C.): 37,973.0
- MFI (mean fluorescence intensity) 4 h ([1]; Table 15, 37° C.): 37,844.0
- binding to mouse Nectin-4 [2]: weak binding
- Ka ([3]; Table 12, association rate): 723000 M⁻¹ s⁻¹
- Kd ([3]; Table 12, dissociation rate): 0.00436 s⁻¹
- ka ([3]; Table 13): 577000 M⁻¹ s⁻¹ and 540000 M⁻¹ s⁻¹
- kd ([3]; Table 13): 0.00581 s⁻¹ and 0.0059 s⁻¹
